Test results as given in publication PMC6785188 (ACS chemical neuroscience, 2019).
pEC50, pKi: −log10 of the molar value.

Columns and labels:
D1R [1] = experiment: Bias calculation; type: cell-based, human; conditions: relative to dopamine; ΔΔlog(τ/KA), GS-cAMP vs β-arrestin2
H1 = H1 (Homo sapiens, UniProt P35367); experiment: Radioligand binding affinity assay, H1
Beta1 = Beta1 (Homo sapiens, UniProt P08588); experiment: Radioligand binding affinity assay, Beta1
5-HT2B = 5-HT2B (Homo sapiens, UniProt P41595); experiment: Radioligand binding affinity assay, 5-HT2B
Chain of 5-HT2B (P41595 whole entry, species assumed): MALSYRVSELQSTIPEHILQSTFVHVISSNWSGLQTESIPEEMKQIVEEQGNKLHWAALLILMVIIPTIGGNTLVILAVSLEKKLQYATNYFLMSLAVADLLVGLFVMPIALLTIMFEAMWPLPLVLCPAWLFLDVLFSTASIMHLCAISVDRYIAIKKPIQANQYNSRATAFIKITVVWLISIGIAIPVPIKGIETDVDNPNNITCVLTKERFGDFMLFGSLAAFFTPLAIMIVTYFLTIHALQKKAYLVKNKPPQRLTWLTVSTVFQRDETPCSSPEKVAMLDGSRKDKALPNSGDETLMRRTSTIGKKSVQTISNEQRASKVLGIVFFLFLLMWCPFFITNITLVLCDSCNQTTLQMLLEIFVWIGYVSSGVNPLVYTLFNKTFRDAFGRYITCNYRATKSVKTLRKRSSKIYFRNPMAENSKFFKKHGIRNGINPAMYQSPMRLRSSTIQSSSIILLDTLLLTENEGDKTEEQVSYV

5-HT1A = molecular target: T1, 5-HT1A (Homo sapiens, UniProt P08908); experiment: Radioligand binding affinity assay, 5-HT1A
T1 sequence (P08908 1-422): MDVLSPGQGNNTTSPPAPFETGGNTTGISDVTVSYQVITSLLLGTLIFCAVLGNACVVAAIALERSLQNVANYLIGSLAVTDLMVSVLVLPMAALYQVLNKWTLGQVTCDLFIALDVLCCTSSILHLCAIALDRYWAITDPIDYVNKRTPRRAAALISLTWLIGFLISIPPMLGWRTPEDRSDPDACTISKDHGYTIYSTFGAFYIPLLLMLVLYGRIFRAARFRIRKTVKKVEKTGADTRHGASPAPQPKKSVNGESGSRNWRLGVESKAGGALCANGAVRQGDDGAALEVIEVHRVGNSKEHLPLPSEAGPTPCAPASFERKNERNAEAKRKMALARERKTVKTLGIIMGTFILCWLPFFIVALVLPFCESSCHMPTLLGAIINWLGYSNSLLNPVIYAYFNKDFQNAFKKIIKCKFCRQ

5-HT1E = 5-HT1E (Homo sapiens, UniProt P28566); experiment: Radioligand binding affinity assay, 5-HT1E
Chain of 5-HT1E (P28566 whole entry, species assumed): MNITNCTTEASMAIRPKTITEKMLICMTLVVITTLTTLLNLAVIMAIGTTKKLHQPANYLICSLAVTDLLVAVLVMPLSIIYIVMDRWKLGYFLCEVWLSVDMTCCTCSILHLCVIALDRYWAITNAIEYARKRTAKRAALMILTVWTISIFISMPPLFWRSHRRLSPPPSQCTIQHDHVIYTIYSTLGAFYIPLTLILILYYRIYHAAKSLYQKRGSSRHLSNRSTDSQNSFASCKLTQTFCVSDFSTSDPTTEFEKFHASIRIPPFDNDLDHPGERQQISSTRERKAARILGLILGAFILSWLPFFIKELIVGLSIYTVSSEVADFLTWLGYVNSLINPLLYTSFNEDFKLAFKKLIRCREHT

D4 = molecular target: T2, D4 (Homo sapiens, UniProt P21917); experiment: Radioligand binding affinity assay, D4
T2 sequence (P21917 1-419): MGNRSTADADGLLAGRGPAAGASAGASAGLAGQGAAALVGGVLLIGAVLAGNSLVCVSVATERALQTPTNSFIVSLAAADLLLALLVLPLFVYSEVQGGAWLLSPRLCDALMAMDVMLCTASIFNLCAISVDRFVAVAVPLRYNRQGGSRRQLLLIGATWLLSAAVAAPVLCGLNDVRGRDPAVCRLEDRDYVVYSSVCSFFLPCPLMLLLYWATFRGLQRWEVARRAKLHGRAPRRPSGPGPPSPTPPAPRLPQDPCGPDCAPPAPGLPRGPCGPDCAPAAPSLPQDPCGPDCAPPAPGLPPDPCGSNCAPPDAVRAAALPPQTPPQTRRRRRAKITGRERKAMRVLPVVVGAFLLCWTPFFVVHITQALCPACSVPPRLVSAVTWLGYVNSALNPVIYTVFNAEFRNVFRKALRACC

[2] = Mouse pharmacokinetic study; type: in vivo; conditions: mice, 50 mg/kg i.p.
M2 = molecular target: T3, M2 (Homo sapiens, UniProt P08172); experiment: Radioligand binding affinity assay, M2
T3 sequence (P08172 1-466): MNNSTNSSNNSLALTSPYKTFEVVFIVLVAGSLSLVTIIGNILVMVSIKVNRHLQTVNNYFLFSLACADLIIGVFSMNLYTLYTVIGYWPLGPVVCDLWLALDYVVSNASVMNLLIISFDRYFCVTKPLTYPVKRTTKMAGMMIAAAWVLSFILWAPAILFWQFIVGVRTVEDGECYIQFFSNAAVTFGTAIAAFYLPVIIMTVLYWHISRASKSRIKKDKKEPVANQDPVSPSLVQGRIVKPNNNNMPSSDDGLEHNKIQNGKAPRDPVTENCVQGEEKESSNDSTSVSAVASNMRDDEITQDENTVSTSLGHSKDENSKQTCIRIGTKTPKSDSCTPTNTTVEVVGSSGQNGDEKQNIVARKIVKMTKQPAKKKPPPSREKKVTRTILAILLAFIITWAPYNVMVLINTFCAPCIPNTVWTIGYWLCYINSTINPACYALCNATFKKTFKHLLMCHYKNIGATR

6-OHDA-lesioned mice = experiment: Motor activity study in 6-OHDA-lesioned mice; type: in vivo; conditions: 5 mg/kg i.p., 90 min
5-HT6 = 5-HT6 (Homo sapiens, UniProt P50406); experiment: Radioligand binding affinity assay, 5-HT6
Chain of 5-HT6 (P50406 whole entry, species assumed): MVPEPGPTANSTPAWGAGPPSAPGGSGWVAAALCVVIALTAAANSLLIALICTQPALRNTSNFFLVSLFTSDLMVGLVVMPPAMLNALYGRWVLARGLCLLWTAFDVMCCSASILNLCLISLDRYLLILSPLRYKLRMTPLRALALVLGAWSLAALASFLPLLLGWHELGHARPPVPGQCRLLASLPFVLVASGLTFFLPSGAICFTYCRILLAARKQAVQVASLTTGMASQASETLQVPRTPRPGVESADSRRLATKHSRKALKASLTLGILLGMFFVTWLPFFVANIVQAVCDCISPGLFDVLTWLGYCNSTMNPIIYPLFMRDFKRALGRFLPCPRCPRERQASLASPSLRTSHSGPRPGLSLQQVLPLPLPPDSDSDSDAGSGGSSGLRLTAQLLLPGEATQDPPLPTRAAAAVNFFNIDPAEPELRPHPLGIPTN

SERT = SERT (Homo sapiens, UniProt P31645); experiment: Radioligand binding affinity assay, SERT
Chain of SERT (P31645 whole entry, species assumed): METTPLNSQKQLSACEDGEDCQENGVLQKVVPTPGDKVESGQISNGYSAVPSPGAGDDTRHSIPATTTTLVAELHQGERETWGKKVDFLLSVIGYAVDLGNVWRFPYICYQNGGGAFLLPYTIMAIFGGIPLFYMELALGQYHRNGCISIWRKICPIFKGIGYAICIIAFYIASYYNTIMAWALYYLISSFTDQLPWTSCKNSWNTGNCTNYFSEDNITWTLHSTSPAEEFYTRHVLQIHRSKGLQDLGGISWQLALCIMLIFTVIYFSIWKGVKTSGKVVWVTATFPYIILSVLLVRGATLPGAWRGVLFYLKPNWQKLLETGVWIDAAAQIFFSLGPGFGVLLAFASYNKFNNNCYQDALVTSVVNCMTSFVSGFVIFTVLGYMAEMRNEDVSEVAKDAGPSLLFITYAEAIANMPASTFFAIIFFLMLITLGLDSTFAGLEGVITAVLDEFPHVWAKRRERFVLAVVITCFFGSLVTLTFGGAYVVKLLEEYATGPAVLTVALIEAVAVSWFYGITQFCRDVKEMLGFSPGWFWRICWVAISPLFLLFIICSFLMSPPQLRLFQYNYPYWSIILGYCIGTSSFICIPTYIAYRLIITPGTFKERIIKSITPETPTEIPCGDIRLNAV

D1R [3] = conditions: Tango assay, ref 73 (Wang et al.), cited from earlier work
M3 = M3 (Homo sapiens, UniProt P20309); experiment: Radioligand binding affinity assay, M3
Chain of M3 (P20309 whole entry): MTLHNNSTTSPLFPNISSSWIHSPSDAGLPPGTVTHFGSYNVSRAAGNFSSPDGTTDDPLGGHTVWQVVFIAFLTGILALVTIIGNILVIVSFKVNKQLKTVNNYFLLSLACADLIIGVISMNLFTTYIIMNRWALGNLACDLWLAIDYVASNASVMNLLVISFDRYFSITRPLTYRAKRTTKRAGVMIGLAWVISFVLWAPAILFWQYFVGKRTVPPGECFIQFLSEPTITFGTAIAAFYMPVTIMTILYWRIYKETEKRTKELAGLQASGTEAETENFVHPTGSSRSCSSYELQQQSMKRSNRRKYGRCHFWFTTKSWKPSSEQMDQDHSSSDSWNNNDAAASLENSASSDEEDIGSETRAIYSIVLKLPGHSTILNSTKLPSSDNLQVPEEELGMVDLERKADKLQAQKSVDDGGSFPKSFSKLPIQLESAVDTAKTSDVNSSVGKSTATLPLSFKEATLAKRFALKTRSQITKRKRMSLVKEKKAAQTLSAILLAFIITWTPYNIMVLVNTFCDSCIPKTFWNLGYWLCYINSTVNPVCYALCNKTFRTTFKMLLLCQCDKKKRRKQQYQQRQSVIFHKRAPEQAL

Alpha2A = molecular target: T4, Alpha2A (Homo sapiens, UniProt P08913); experiment: Radioligand binding affinity assay, Alpha2A
T4 sequence (P08913 1-465): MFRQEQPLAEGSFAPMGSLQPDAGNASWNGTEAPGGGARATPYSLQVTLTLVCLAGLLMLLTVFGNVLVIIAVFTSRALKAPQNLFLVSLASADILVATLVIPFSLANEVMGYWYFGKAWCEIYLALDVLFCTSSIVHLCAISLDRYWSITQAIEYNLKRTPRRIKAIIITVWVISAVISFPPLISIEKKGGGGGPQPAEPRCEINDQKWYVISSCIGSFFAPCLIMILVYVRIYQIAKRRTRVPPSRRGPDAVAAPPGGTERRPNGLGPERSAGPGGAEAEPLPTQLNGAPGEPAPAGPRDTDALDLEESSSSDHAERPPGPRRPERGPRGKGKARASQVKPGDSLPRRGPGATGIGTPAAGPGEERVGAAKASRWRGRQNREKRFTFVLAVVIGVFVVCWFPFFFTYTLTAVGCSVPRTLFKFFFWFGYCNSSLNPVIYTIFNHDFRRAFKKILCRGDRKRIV

5-HT5A = 5-HT5A (Homo sapiens, UniProt P47898); experiment: Radioligand binding affinity assay, 5-HT5A
Chain of 5-HT5A (P47898 whole entry, species assumed): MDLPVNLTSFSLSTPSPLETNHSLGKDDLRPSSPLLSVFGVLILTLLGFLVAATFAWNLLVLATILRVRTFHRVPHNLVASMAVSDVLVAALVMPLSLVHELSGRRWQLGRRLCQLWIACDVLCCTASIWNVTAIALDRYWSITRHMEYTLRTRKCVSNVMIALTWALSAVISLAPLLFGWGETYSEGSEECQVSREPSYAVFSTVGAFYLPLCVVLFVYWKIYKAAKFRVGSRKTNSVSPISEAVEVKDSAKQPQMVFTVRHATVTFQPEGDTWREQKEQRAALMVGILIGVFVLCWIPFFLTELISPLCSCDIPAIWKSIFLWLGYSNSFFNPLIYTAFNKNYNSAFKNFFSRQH

Chain of H1 (P35367 whole entry): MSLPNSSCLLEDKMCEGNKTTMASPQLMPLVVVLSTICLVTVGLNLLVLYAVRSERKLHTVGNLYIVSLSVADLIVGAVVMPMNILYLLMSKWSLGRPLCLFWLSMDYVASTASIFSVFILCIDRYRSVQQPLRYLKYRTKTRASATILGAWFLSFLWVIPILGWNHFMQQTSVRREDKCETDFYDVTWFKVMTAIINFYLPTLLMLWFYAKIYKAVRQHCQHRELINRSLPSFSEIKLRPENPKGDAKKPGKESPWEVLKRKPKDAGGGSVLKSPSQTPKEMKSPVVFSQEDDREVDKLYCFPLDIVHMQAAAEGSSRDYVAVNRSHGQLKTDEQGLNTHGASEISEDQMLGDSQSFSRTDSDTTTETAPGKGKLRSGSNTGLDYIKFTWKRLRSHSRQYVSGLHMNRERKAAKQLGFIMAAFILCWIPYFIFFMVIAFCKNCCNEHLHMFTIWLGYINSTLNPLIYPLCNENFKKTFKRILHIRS
Chain of Beta1 (P08588 whole entry): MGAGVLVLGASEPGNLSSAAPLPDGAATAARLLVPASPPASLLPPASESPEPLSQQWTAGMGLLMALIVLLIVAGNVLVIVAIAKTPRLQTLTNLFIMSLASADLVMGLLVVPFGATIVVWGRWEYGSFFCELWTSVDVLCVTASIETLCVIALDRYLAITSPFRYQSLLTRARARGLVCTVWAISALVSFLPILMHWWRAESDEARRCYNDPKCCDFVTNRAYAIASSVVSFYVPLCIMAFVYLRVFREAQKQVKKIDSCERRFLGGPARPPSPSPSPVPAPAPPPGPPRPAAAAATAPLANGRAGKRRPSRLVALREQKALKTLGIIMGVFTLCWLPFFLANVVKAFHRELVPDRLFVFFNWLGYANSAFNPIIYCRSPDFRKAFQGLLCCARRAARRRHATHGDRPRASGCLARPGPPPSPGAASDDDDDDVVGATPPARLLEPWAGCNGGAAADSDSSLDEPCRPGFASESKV

SMILES | pKi (H1) | pKi (Beta1) | pKi (5-HT2B) | pKi (5-HT1A) | pKi (5-HT1E) | pKi (D4) | pKi (M2) | pKi (5-HT6) | pKi (SERT) | pKi (Alpha2A) | pKi (5-HT5A) | BBB penetrance [2] | tolerability / adverse clinical signs [2] | pKi (M3) | also measured
Cc1cc(Oc2nccc3occc23)ccc1-c1c(C)c(=O)[nH]c(=O)n1C [Compound 10, 6-(4-(Furo[3,2-c]pyridin-4-yloxy)-2-methylphenyl)-1,5-dimethylpyrimidine-2,4(1H,3H)-dione] | < 5.00 | < 5.00 | < 5.00 | < 5.00 | < 5.00 | < 5.00 | < 5.00 | < 5.00 | < 5.00 | < 5.00 | < 5.00 | good BBB penetrance | well-tolerated | < 5.00 | bias factor for β-arrestin2 (D1R [1]): 1.8; forward locomotion at each time interval and total distance traveled vs vehicle (6-OHDA-lesioned mice): statistically significant increases; number of contralateral rotations vs vehicle (6-OHDA-lesioned mice): significant increases; β-arrestin2 recruitment EMAX (D1R [3]): 86%; pEC50 (D1R [3]; read-out: β-arrestin2 recruitment EC50): 7.46
Cc1cc2c(Oc3ccc(-c4c(C)c(=O)[nH]c(=O)n4C)c(C)c3)nccc2o1 [Compound 36, 1,5-Dimethyl-6-(2-methyl-4-((2-methylfuro[3,2-c]pyridin-4-yl)-oxy)phenyl)pyrimidine-2,4(1H,3H)-dione] | < 5.00 | < 5.00 | < 5.00 | < 5.00 | < 5.00 | < 5.00 | < 5.00 | < 5.00 | < 5.00 | < 5.00 | < 5.00 | – | – | < 5.00 | –
COc1ccnc(Oc2ccc(-c3c(C)c(=O)[nH]c(=O)n3C)c(C)c2)c1C(F)(F)F [Compound 35, 6-(4-((4-Methoxy-3-(trifluoromethyl)pyridin-2-yl)oxy)-2-methylphenyl)-1,5-dimethylpyrimidine-2,4(1H,3H)-dione] | < 5.00 | < 5.00 | < 5.00 | < 5.00 | < 5.00 | < 5.00 | – | < 5.00 | < 5.00 | – | < 5.00 | good BBB penetrance | well-tolerated | < 5.00 | time stable levels are maintained in the brain and plasma after administration [2]: at least 4 hours; peak concentration in the brain ([2]; sampled 0.5, 1.5, 4.0 h): ~100 µM; peak concentration in the plasma ([2]; sampled 0.5, 1.5, 4.0 h): ~100 µM
Cc1cc(Oc2nccc3ccsc23)ccc1-c1c(C)c(=O)[nH]c(=O)n1C [Compound 40, 1,5-Dimethyl-6-(2-methyl-4-(thieno[2,3-c]pyridin-7-yloxy)-phenyl)pyrimidine-2,4(1H,3H)-dione] | < 5.00 | < 5.00 | < 5.00 | < 5.00 | < 5.00 | < 5.00 | < 5.00 | < 5.00 | < 5.00 | < 5.00 | < 5.00 | – | – | – | –

Now from value to compound, other results behind:

pKi (H1) | pKi (Beta1) | pKi (5-HT2B) | pKi (5-HT1A) | pKi (5-HT1E) | pKi (D4) | pKi (M2) | pKi (5-HT6) | pKi (SERT) | pKi (Alpha2A) | pKi (5-HT5A) | SMILES | BBB penetrance [2] | tolerability / adverse clinical signs [2] | pKi (M3) | also measured
< 5.00 | < 5.00 | < 5.00 | < 5.00 | < 5.00 | < 5.00 | < 5.00 | < 5.00 | < 5.00 | < 5.00 | < 5.00 | Cc1cc(Oc2nccc3c2ccn3C)ccc1-c1c(C)c(=O)[nH]c(=O)n1C [Compound 37, 1,5-Dimethyl-6-(2-methyl-4-((1-methyl-1H-pyrrolo[3,2-c]pyridin-4-yl)oxy)phenyl)pyrimidine-2,4(1H,3H)-dione] | – | – | – | –
< 5.00 | < 5.00 | < 5.00 | < 5.00 | < 5.00 | < 5.00 | – | < 5.00 | < 5.00 | < 5.00 | < 5.00 | Cc1cc(Oc2nccc3occc23)ccc1-c1c(C)c(=O)[nH]c(=O)n1C1CC1 [Compound 18, 1-Cyclopropyl-6-(4-(furo[3,2-c]pyridin-4-yloxy)-2-methylphenyl)-5-methylpyrimidine-2,4(1H,3H)-dione] | – | – | < 5.00 | –
